Data as given in PubChem BioAssay AID1963867 (Molecular Pharmacology Branch, DTP, NCI, 2024).

Test system: KRAS-mutant PDC tumor spheroid with HUVEC/MSC, viability
Assay: Anticancer human tumor 327498-153-R-J2-PDC patient-derived uterine carcinosarcoma cell line growth inhibition [KRAS2]
Conditions: for IC50: curve of first compound; for viability, T/C: stronger effect = lower value; active = viability on the fitted dose curve at most 10% of control; inactive = the rest
Method in brief: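 Combination screen of spheroid viability in tumor-cell co-cultures with endothelial (HUVEC) and mesenchymal stem cell stroma. Each agent was tested in half-log dilutions, topping at clinical Cmax or at 10 microM without a known Cmax.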

[1] = second compound 0.1 µM, first compound 0.0316 µM
[2] = second compound 0.1 µM, first compound 0.1 µM
[3] = second compound 0.1 µM, first compound 0.316 µM
[4] = second compound 0.1 µM, first compound 1 µM
[5] = second compound 0.1 µM, first compound 3.16 µM
[6] = second compound 0.316 µM, first compound 0.0316 µM
[7] = second compound 0.316 µM, first compound 0.1 µM
[8] = second compound 0.316 µM, first compound 0.316 µM
[9] = second compound 0.316 µM, first compound 1 µM
[10] = second compound 0.316 µM, first compound 3.16 µM
[11] = second compound 1 µM, first compound 0.0316 µM
[12] = second compound 1 µM, first compound 0.1 µM
[13] = second compound 1 µM, first compound 0.316 µM
[14] = second compound 1 µM, first compound 1 µM
[15] = second compound 1 µM, first compound 3.16 µM
[16] = second compound 3.16 µM, first compound 0.0316 µM
[17] = second compound 3.16 µM, first compound 0.1 µM
[18] = second compound 3.16 µM, first compound 0.316 µM
[19] = second compound 3.16 µM, first compound 1 µM
[20] = second compound 3.16 µM, first compound 3.16 µM
[21] = second compound 10 µM, first compound 0.0316 µM
[22] = second compound 10 µM, first compound 0.1 µM
[23] = second compound 0.1 µM, first compound 0.01 µM
[24] = second compound 0.316 µM, first compound 0.01 µM
[25] = second compound 1 µM, first compound 0.01 µM
[26] = second compound 3.16 µM, first compound 0.01 µM
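Also: spheroids exposed to agents for seven days before reading.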
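For viability, T/C in this document: 100% = DMSO vehicle wells so lower means fewer viable cells.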

CC1OCC2(CCN(c3cnc(Sc4ccnc(N)c4Cl)c(N)n3)CC2)C1N (stereo not given) + CNCc1ccccc1-c1csc(C(C)Nc2nc(C)nc3cc(OC)c(OC)cc23)c1
136 nM: IC50 (second compound 0.1 µM)
109 nM: IC50 (second compound 0.316 µM)
active: viability, T/C [16] 0.11% | viability, T/C [17] 0.09% | viability, T/C [18] 0.08% | viability, T/C [19] 0.06% | viability, T/C [20] 0.06% | viability, T/C (second compound 3.16 µM, first compound 10 µM) 0.17% | viability, T/C [21] 0.13% | viability, T/C [22] 0.18% | viability, T/C (second compound 10 µM, first compound 0.316 µM) 0.13% | viability, T/C (second compound 10 µM, first compound 1 µM) 0.43% | viability, T/C (second compound 10 µM, first compound 3.16 µM) 0.13% | viability, T/C (second compound 10 µM, first compound 10 µM) 0.22%
inactive: viability, T/C [1] 75.4% | viability, T/C [2] 52.6% | viability, T/C [3] 41.2% | viability, T/C [4] 34.2% | viability, T/C [5] 30.9% | viability, T/C (second compound 0.1 µM, first compound 10 µM) 27.7% | viability, T/C [6] 61.4% | viability, T/C [7] 51.8% | viability, T/C [8] 36% | viability, T/C [9] 31% | viability, T/C [10] 28% | viability, T/C (second compound 0.316 µM, first compound 10 µM) 24.6% | viability, T/C [11] 65.7% | viability, T/C [12] 50.1% | viability, T/C [13] 39.9% | viability, T/C [14] 31.9% | viability, T/C [15] 31.7% | viability, T/C (second compound 1 µM, first compound 10 µM) 27.5%
< 31.6 nM: IC50 (second compound 3.16 µM) | IC50 (second compound 10 µM)
100 nM: IC50 (second compound 1 µM)

Cn1ncnc1[C@H]1c2n[nH]c(=O)c3cc(F)cc(c23)N[C@@H]1c1ccc(F)cc1 + CC1OCC2(CCN(c3cnc(Sc4ccnc(N)c4Cl)c(N)n3)CC2)C1N
< 0.316 nM: IC50 (second compound 1 µM) | IC50 (second compound 3.16 µM) | IC50 (second compound 10 µM)
10.9 nM: IC50 (second compound 0.1 µM)
inactive: viability, T/C (second compound 0.1 µM, first compound 0.000316 µM) 71.8% | viability, T/C (second compound 0.1 µM, first compound 0.001 µM) 68.1% | viability, T/C (second compound 0.1 µM, first compound 0.00316 µM) 59.4% | viability, T/C [23] 55.2% | viability, T/C [1] 31.4% | viability, T/C [2] 18% | viability, T/C (second compound 0.316 µM, first compound 0.000316 µM) 58% | viability, T/C (second compound 0.316 µM, first compound 0.001 µM) 51.1% | viability, T/C (second compound 0.316 µM, first compound 0.00316 µM) 40.7% | viability, T/C [24] 38.2% | viability, T/C [6] 23.3% | viability, T/C [7] 15.6% | viability, T/C (second compound 1 µM, first compound 0.000316 µM) 45.5% | viability, T/C (second compound 1 µM, first compound 0.001 µM) 37.2% | viability, T/C (second compound 1 µM, first compound 0.00316 µM) 26.6% | viability, T/C [25] 21.4% | viability, T/C [11] 15.6% | viability, T/C [12] 13.2% | viability, T/C (second compound 3.16 µM, first compound 0.000316 µM) 30% | viability, T/C (second compound 3.16 µM, first compound 0.001 µM) 32.2% | viability, T/C (second compound 3.16 µM, first compound 0.00316 µM) 25% | viability, T/C [26] 19.2% | viability, T/C [16] 11.2% | viability, T/C (second compound 10 µM, first compound 0.000316 µM) 29.5% | viability, T/C (second compound 10 µM, first compound 0.001 µM) 27.1% | viability, T/C (second compound 10 µM, first compound 0.00316 µM) 21.9% | viability, T/C (second compound 10 µM, first compound 0.01 µM) 15.5% | viability, T/C [21] 12.4%
1.14 nM: IC50 (second compound 0.316 µM)
active: viability, T/C [17] 9.64% | viability, T/C [22] 8.58%

CC1COCCN1c1cc(-c2ccnn2C)c2ccnc(-c3ccn[nH]3)c2n1 (stereo not given) + C=CC(=O)N1CCN(c2nc(OCC3CCCN3C)nc3c2CCN(c2cccc4cccc(C)c24)C3)CC1CC#N
inactive: viability, T/C (second compound 0.0316 µM, first compound 0.01 µM) 55.6% | viability, T/C (second compound 0.0316 µM, first compound 0.0316 µM) 26.6% | viability, T/C [23] 50.2% | viability, T/C [1] 21% | viability, T/C [24] 35.1% | viability, T/C [6] 21.6% | viability, T/C [25] 29.9% | viability, T/C [11] 14.6%
12.5 nM: IC50 (second compound 0.0316 µM)
10 nM: IC50 (second compound 0.1 µM)
active: viability, T/C (second compound 0.0316 µM, first compound 0.1 µM) 8.55% | viability, T/C (second compound 0.0316 µM, first compound 0.316 µM) 6.25% | viability, T/C (second compound 0.0316 µM, first compound 1 µM) 6.05% | viability, T/C (second compound 0.0316 µM, first compound 3.16 µM) 5.16% | viability, T/C [2] 9.02% | viability, T/C [3] 5.92% | viability, T/C [4] 6.34% | viability, T/C [5] 5.2% | viability, T/C [7] 7.42% | viability, T/C [8] 4.41% | viability, T/C [9] 4.61% | viability, T/C [10] 4.35% | viability, T/C [12] 3.87% | viability, T/C [13] 3.63% | viability, T/C [14] 4.58% | viability, T/C [15] 3.92% | viability, T/C [26] 0.17% | viability, T/C [16] 0.63% | viability, T/C [17] 0.14% | viability, T/C [18] 0.14% | viability, T/C [19] 0.29% | viability, T/C [20] 0.22%
< 10 nM: IC50 (second compound 0.316 µM) | IC50 (second compound 1 µM) | IC50 (second compound 3.16 µM)
